# Earlier results in publication PMC6311893, “Computational prediction of plasma protein binding of cyclic peptides from small molecule experimental data using sparse modeling techniques” (BMC Bioinformatics, 2018).
# Non-standard residues stand in square brackets, D forms with d. Residues, ends and D or L forms follow the SMILES beside them. dPhe(4-Cl) = N[C@H](Cc1ccc(Cl)cc1)C(=O)O; d2Nal = N[C@H](Cc1ccc2ccccc2c1)C(=O)O; dCit = NC(=O)NCCC[C@@H](N)C(=O)O; d3Pal = N[C@H](Cc1cccnc1)C(=O)O
# Tested on: plasma protein
# Conditions: cited from earlier work
row,Compound,PPB (fb)
1,Cc1ccc(C(N)C(=O)NC2C(=O)N3C2SC(C)(C)C3C(=O)O)cc1 (stereo not shown) [penicillin27],0.6

# Same assay, conditions: fraction bound to plasma protein; small molecule dataset, sheet 1-SM (Set Dte = test, Dtr = training); ref Ingle et al.; cited from earlier work
row,Compound,PPB (fb)
1,O=C(O)c1cn(-c2ccccc2C(F)(F)F)c2cc(N3CCNCC3)c(F)cc2c1=O [3a(o-CF3)],0.38
2,COC1/C=C/OC2(C)Oc3c(C)c(O)c4c(O)c(c(/C=N/N5CCN(C6CCCC6)CC5)c(O)c4c3C2=O)NC(=O)/C(C)=C\C=C\C(C)C(O)C(C)C(O)C(C)C(O)C1C (stereo not shown) [25-desacetylrifapentine],0.98
3,CNCCc1ccccn1 [betahistine],0.03
4,CN(C)CC/C=C1/c2ccccc2Sc2ccc(Cl)cc21 [chlorprothixene],0.99
5,COc1ccc(CCNCC(O)COc2cccc(C)c2)cc1OC (stereo not shown) [Bevantolol],0.97
6,Cc1ccc(NC(=O)c2ccc(CN3CCNCC3)cc2)cc1Nc1nccc(-c2cccnc2)n1 [N-desmethyl-imatinib],0.7
7,O=C(O)c1cn(-c2cccc(C(F)(F)F)c2)c2cc(N3CCNCC3)c(F)cc2c1=O [3b(m-CF3)],0.62
8,CCN1CCCC1CNC(=O)c1cc(S(=O)(=O)CC)c(N)cc1OC (stereo not shown) [amisulpride],0.16
9,CCCC(=O)N1CCCN(c2nc(N)c3cc(OC)c(OC)cc3n2)CC1 [Bunazosin],0.95
10,CCCN1CCN(c2cc3c(cc2F)c(=O)c(C(=O)O)cn3-c2ccc(OC)cc2)CC1 [5cc (p-OCH3__ N- C3H7],0.54
11,CN(C)c1nc(N(C)C)nc(N(C)C)n1 [altretamine],0.94
12,Cc1cc(C)nc(NS(=O)(=O)c2ccc(N)cc2)n1 [sulfadimidine],0.85
13,NCCCC(N)(C(=O)O)C(F)F (stereo not shown) [eflornithine],0
14,CC(=O)N1CCN(c2ccc(OCC3COC(Cn4ccnc4)(c4ccc(Cl)cc4Cl)O3)cc2)CC1 (stereo not shown) [ketoconazole],0.92
15,Nc1nc(=O)[nH]cc1F [Flucytosine],0.02
16,CC(C)(O)C(Cl)(Cl)Cl [chlorobutanol],0.55

# Same assay, conditions: fraction bound to plasma protein; small molecule dataset, sheet 1-SM, Set Dtr; ref Ingle et al.; cited from earlier work
row,Compound,PPB (fb)
1,COc1ccccc1OCCNCC(O)COc1cccc2[nH]c3ccccc3c12 (stereo not shown) [Carvedilol],0.96
2,CN(C)CCOc1ccc(/C(=C(/CCCl)c2ccccc2)c2ccccc2)cc1 [toremifene],0.99
3,OCC(CO)N[C@H]1C[C@](O)(CO)[C@@H](O)[C@H](O)[C@H]1O [voglibose],0.14
4,C=C[C@H]1C[N@@]2CC[C@H]1C[C@H]2[C@H](O)c1ccnc2ccc(OC)cc12 [Quinine],0.81
5,CN(CCOc1ccc(NS(C)(=O)=O)cc1)CCc1ccc(NS(C)(=O)=O)cc1 [Dofetilide],0.64
6,CC1(C)S[C@@H]2[C@H](NC(=O)[C@H](NC(=O)N3CCNC3=O)c3ccccc3)C(=O)N2[C@H]1C(=O)O [Azlocillin],0.32
7,Cc1onc(-c2ccccc2)c1-c1ccc(S(N)(=O)=O)cc1 [valdecoxib],0.98
8,C[C@H](CCC(=O)O)[C@H]1CC[C@H]2[C@@H]3[C@@H](O)C[C@@H]4C[C@H](O)CC[C@]4(C)[C@H]3CC[C@]12C [ursodiol],0.97
9,COc1ccc(-c2nc3ccc(C4=NNC(=O)CC4C)cc3[nH]2)cc1 (stereo not shown) [Pimobendan],0.98
10,CCC(=O)OCC(=O)[C@@]1(OC(=O)CC)[C@@H](C)C[C@H]2[C@@H]3CCC4=CC(=O)C=C[C@]4(C)[C@@]3(Cl)[C@@H](O)C[C@@]21C [Beclomethasone dipropionate],0.87
11,CN[C@@H]1[C@@H](O)[C@@H](O[C@@H]2[C@@H](O)[C@H](O[C@H]3O[C@H](CN)[C@@H](O)[C@H](O)[C@H]3O)[C@@H](N)C[C@H]2NC(=O)[C@@H](O)CN)OC[C@]1(C)O [Isepamicin],0.05
12,CCN(CCO)CCCC(C)Nc1ccnc2cc(Cl)ccc12 (stereo not shown) [Hydroxychloroquine],0.46
13,Cn1nnnc1SCC1=C(C(=O)O)N2C(=O)[C@@H](NC(=O)[C@H](O)c3ccccc3)[C@H]2SC1 [Cefamandole],0.74
14,c1ccc(CC2=NCCN2)cc1 [tolazoline],0.23
15,CN1CC[C@H](c2c(O)cc(O)c3c(=O)cc(-c4ccccc4Cl)oc23)[C@H](O)C1 [Flavopiridol],0.94

# Same assay, conditions: fraction bound to plasma protein; small molecule dataset, sheet 1-SM; ref Ingle et al.; cited from earlier work
row,Compound,PPB (fb)
1,CCOC(=O)Nc1ccc2c(c1)N(C(=O)CCN1CCOCC1)c1ccccc1S2 [moracizine],0.88
2,CC1(C)SC2C(NC(=O)C(NC(=O)c3ccccn3)c3ccccc3)C(=O)N2C1C(=O)O (stereo not shown) [penicillin36],0.63
3,CCCCC(=O)N(Cc1ccc(-c2ccccc2-c2nnn[nH]2)cc1)[C@H](C(=O)O)C(C)C [Valsartan],0.95
4,O=C1NC(=O)C(c2ccccc2)(c2ccccc2)N1 [phenytoin],0.91
5,CCCN(CC)C(CC)C(=O)Nc1c(C)cccc1C (stereo not shown) [etidocaine],0.94
6,CC1(C)SC2C(NC(=O)C(O)c3ccccc3)C(=O)N2C1C(=O)O (stereo not shown) [penicillin37],0.53
7,CC(=O)/N=c1/sc(S(N)(=O)=O)nn1C [methazolamide],0.55
8,CC(C(=O)O)c1ccc(C(=O)c2cccs2)cc1 (stereo not shown) [Suprofen],0.99
9,Cc1nc(C)c(C)nc1C [tetramethylpyrazine phosphate],0.56
10,Nc1ccc(S(=O)(=O)Nc2ncccn2)cc1 [Sulfadiazine],0.45
11,Cc1ccc(O)c([C@H](CCN(C(C)C)C(C)C)c2ccccc2)c1 [Tolterodine],0.96
12,C#C[C@]1(O)CC[C@H]2[C@@H]3CCC4=CC(=NO)CC[C@@H]4[C@H]3CC[C@@]21CC (mixture of isomers) [norelgestromin],0.97
13,CCC(=O)O[C@@H](O[P@](=O)(CCCCc1ccccc1)CC(=O)N1C[C@H](C2CCCCC2)C[C@H]1C(=O)O)C(C)C [fosinopril],0.95
14,CN1CCC(=C2c3ccccc3CC(=O)c3sccc32)CC1 [ketotifen],0.8
15,Nc1ccc(S(=O)(=O)Nc2ccc(Cl)nn2)cc1 [sulfachlorpyridazine],0.97
16,C#C[C@]1(O)CC[C@H]2[C@@H]3CCC4=CCCC[C@@H]4[C@H]3CC[C@@]21C [lynestrenol],0.96

# Same assay, conditions: human, plasma; cited from earlier work
row,Compound,PPB (fb)
1,CC(=O)N[C@H](Cc1ccc2ccccc2c1)C(=O)N[C@H](Cc1ccc(Cl)cc1)C(=O)N[C@H](Cc1cccnc1)C(=O)N[C@@H](CO)C(=O)N[C@@H](Cc1ccc(O)cc1)C(=O)N[C@H](CCCNC(N)=O)C(=O)N[C@@H](CC(C)C)C(=O)N[C@@H](CCCNC(=N)N)C(=O)N1CCC[C@H]1C(=O)N[C@H](C)C(N)=O [Cetrorelix] (Ac-[d2Nal][dPhe(4-Cl)][d3Pal]SY[dCit]LRP[dA]-NH2),0.86

# Same assay, conditions: plasma; cited from earlier work
row,Compound,PPB (fb)
1,flurazepam,0.97
2,CN1CCN=C(c2ccccc2)c2cc(Cl)ccc21 [medazepam],0.99
3,O=C1OC(c2ccc(O)c(S(=O)(=O)O)c2)(c2ccc(O)c(S(=O)(=O)O)c2)c2c(Br)c(Br)c(Br)c(Br)c21 [sulfobromophthalein],0.99
4,demeclocycline,0.54
5,methacycline,0.84
6,NC(=O)C[S+]([O-])C(c1ccccc1)c1ccccc1 (stereo not shown) [modafinil],0.6
7,O=C1CN=C(c2ccccn2)c2cc(Br)ccc2N1 [Bromazepam],0.61
8,COC1C(C)OC(OC2C=C3CCC4C(CCC5(C)C(c6ccc(=O)oc6)CCC45O)C3(C)CC2)C(O)C1O (stereo not shown) [meproscillarin],0.96
9,O=P1(NCCCl)OCCCN1CCCl (stereo not shown) [Ifosfamide],0
